# Paper PMC5369982, “Near infrared fluorescent imaging of choline kinase alpha expression and inhibition in breast tumors” (Oncotarget, 2017)
# Read-outs that look alike come from different tables or passages of the source.
# Legend:
# 4175-Luc+ tumors = assay: NIRF optical imaging, JAS239 biodistribution in mice bearing 4175-Luc+ tumors; assay type: in vivo, mouse
# Method: Bioluminescence and NIRF (Ex. 745 nm; Em. 800 nm) images were acquired in an IVIS Spectrum (PerkinElmer). NIRF is measured in Average Radiant Efficiency, photons per second (p/sec) corrected for the area of the region of interest (ROI) and the efficiency of the lamp (μ Watt *cm^−2 / steradian^-1). For bioluminescence imaging, mice were injected i.p. with 150 mg/kg of firefly D-luciferin (Biosynth). Bioluminescent Radiance (p/sec/cm^2/sr) was monitored by time-course imaging until the luminescence intensity plateaued. For NIRF imaging, mice were injected i.v. with 100 μL vehicle or JAS239 (20 nmol). Two vehicle formulations were tested in mice bearing 4175-Luc+ tumors: the first was 0.1% Tween-80 / 50 mM Tris-HCl, and the second was 1% ethanol diluted in 0.9% saline. ROIs with a 20% threshold were created from the bioluminescence image using the LivingImage software (PerkinElmer) program, and this region was used to analyze intratumoral JAS239 accumulation in the NIRF images. Resected organs were placed in 24-well plates and NIRF was measured to quantify JAS239 biodistribution. For diagnostic studies, mice bearing both MCF7-EV and MCF7-CK+ tumors of approximately 200 μL were injected with 20 nmol JAS239 in Tween-80/Tris (8 mice) or in ethanol/saline (7 mice). The cohorts were euthanized after 90 min / 24h respectively, and tumor-bearing flanks were surgically exposed. NIRF from the tumor-bearing fat pads was subtracted from background muscle signal and the Average Radiant Efficiency measured.
# [1] = system: MCF7-EV and MCF7-CK+ tumors; assay: NIRF optical imaging of JAS239 in mice bearing MCF7-EV and MCF7-CK+ tumors; assay type: in vivo, mouse
# Method: All animal studies were approved by the Institutional Animal Care and Use Committee of the University of Pennsylvania. Six week old female athymic nude Foxn1^nu/nu mice (National Cancer Institute) were housed in a temperature-controlled environment with 12 h light/dark cycle. Anesthesia was induced using 2% isoflurane in oxygen for all experiments. For MCF7 tumors, mice were supplemented with 60-day release 0.36 mg 17β-estradiol tablets (Innovative Research of America) using a trochar in the nape of the neck. After 1 week, 4 × 10^6 cells in Matrigel (BD Biosciences) were inoculated into the left (CK+) and contralateral (EV) mammary fat pads. Subcutaneous xenografts, including those analyzed in MRI/MRS studies, were grown on the shoulder to allow for cloaking of the kidneys during optical imaging studies. Tumor growth was determined via caliper measurement of three orthogonal dimensions and volume calculated as length * width * height * π/6.
# Bioluminescence and NIRF (Ex. 745 nm; Em. 800 nm) images were acquired in an IVIS Spectrum (PerkinElmer). NIRF is measured in Average Radiant Efficiency, photons per second (p/sec) corrected for the area of the region of interest (ROI) and the efficiency of the lamp (μ Watt *cm^−2 / steradian^-1). […] Bioluminescent Radiance (p/sec/cm^2/sr) was monitored by time-course imaging until the luminescence intensity plateaued. […]
# [2] = design: method as in PMID 10397253; details: cited from earlier work
Molecule,Initial hepatic clearance time (4175-Luc+ tumors; 20 nmol i.v. in Tween-80/Tris buffer),"Tumor NIRF emission at 800 nm vs. control (4175-Luc+ tumors; 20 nmol i.v. in Tween-80/Tris buffer, 90 min)","Time of maximum NIRF contrast between tumor and background (4175-Luc+ tumors; 20 nmol i.v. in Tween-80/Tris buffer, post-injection) [min]","Time of highest tumor signal to noise (4175-Luc+ tumors; 20 nmol i.v. in ethanol/saline vehicle, subcutaneous tumors) [h]","Tumor-to-muscle ratio ex vivo (4175-Luc+ tumors; ethanol/saline vehicle, 24 h post-injection)","Hepatic signal compared to the Tween-80/Tris vehicle (4175-Luc+ tumors; ethanol/saline vehicle, 24 h post-injection, resected organs)",Tumor/normal tissue fluorescence ratio [1],Tolerability ([2]; 10 mg/kg),Tolerability ([2]; dosed daily for 5 days at 5 mg/kg)
CC1(C)C(=C/C=C/C=C/C=C/C2=[N+](CCO)c3ccccc3C2(C)C)N(CCO)c2ccccc21 [JAS239],approximately 75 min,an order of magnitude stronger,90,24,nearly two-fold,dropped nearly one order of magnitude,2.8 ± 0.2,,
MN58b [reference compound],,,,,,,,lethal,tolerable
